Data published in patent publication US6716836B2, “Non-nucleoside reverse transcriptase inhibitors” (Boehringer Ingelheim (Canada) Ltd., priority 2001, dated 2004).

Key:
[1] = molecular target: T1, HIV-1 RT double mutant K103N/Y181C (Human immunodeficiency virus type 1 group M subtype B, UniProt P04585, K690N/Y768C); experiment: Reverse Transcriptase (RT) assay, double mutant enzyme; assay type: biochemical
T1 construct: Heterodimeric RT was eluted using a descending gradient; made in house; host or cells: E. coli (inferred; the text describes only wild type and Y181C preparations)
From the text: (§1) Among the enzymes for which Human Immunodeficiency Virus (HIV-1) encodes is a reverse transcriptase (1), so-named because it transcribes a DNA copy from an RNA template. This activity can be quantitatively measured in a cell-free enzyme assay, which has been previously described (2), and is based upon the observation that reverse transcriptase is able to use a synthetic template poly r(C) primed with oligo d(G) to transcribe a radio-labelled, acid-precipitable DNA strand utilising ^3H-dGTP as a substrate. The assay described below utilises the wild type (WT) enzyme, which is the predominant form of the enzyme observed with patients infected with HIV-1. Utilisation of mutant RT enzymes (for example, Y181C, prepared by site-directed mutagenesis in which the tyrosine residue at codon 181 has been replaced by a cysteine residue, or the mutants K103N, V106A and Y188C) and analogous assay conditions allows compounds to be evaluated for their effectiveness at inhibiting the mutant enzymes.
(§2) The HIV-1 RT expression clone, pKRT2, was obtained from Yale University (3). An overnight culture, grown in 2×YT medium (37° C., 225 rpm) (4), supplemented with 100 μg/mL ampicillin for positive selection was used to inoculate the 2×YT medium. The culture was incubated (37° C., 225 rpm) until it reached an OD600 of 0.6-0.9. At that time, the repressor inhibitor IPTG (isopropyl P-D-thiogalactopyranoside) was added to 0.5 mM, and the mixture was incubated for an additional 2 hours.
(§3) Purification of recombinant reverse transcriptase was performed using a combination of methods previously described (5). This procedure is summarised briefly as follows: E. Coli containing RT-1 wt or RT-1 (Y181 C) were suspended in 50 mM MES, pH 6.0 containing 10% glycerol, lysed in a French press, centrifuged, and the supernates discarded. Lysate pellets were extracted with buffer A (50 mM MES, pH 6.0, 100 mM KCl, 50 mM KPi, 10% glycerol, 0.02% hexyl-β-glucoside), and re-centrifuged; nucleic acid in supernates was precipitated with 0.1% polyethylenimine. […] Bound RT was eluted with a gradient of 0 to 1.0M
(§4) (NH4)2 SO4 in buffer B. Heparin-Sepharose fractions containing RT were concentrated (Amicon YM-30 membrane), combined with equal volumes of 2.0M (NH4)2SO4 in buffer B and injected onto a 21.5×150 mm TSK Phenyl-5PW HIC HPLC column (Phenomenex). Heterodimeric RT was eluted using a descending gradient of 1.0M to 0M (NH4)2SO4 in buffer B, concentrated, and stored at 4° C.
(§5) The 2.4× concentrated stock reaction mixture was aliquoted and stored at −20° C. The mixture is stable and can be thawed for use in each assay. This enzyme assay has been adapted to a 96 well microtiter plate system, and has been previously described (6). Tris buffer (50 mM, pH 7.8), vehicle (solvent diluted to match the compound dilution), or compounds in vehicle were dispensed into 96-well microtiter plates (10 μL/well; 3 wells/compound). The HIV-1 RT enzyme was thawed, diluted in 50 mM Tris pH 7.8 containing 0.05% Chaps to give 1.5 nM enzyme and 25 μL were dispensed per well. Ten μL of 0.5M EDTA were added to the first three wells of the microtiter plate. EDTA chelates the Mg^2+ present and prevents reverse transcription. This group served as background polymerisation, which was subtracted, from all other groups. Twenty-five μl of the 2.4× reaction mixture was added to all wells and the assay was allowed to incubate at room temperature for 30 minutes. The assay was terminated by precipitating the DNA in each well with 60 μL of sodium pyrophosphate (2% w/v) in 10% trichloroacetic acid (TCA) (10% w/v). The microtiter plate was incubated for 15 minutes at 4° C. and the precipitate was harvested onto #30 glass fibre paper (Schleicher & Schuell) using a Tomtech 96-well harvester. The filters were dried, placed in plastic bags with Betaplate scintillation cocktail (Pharmacia/LKB) and counted in the Betaplate counter (Pharmacia/LKB).
(§6) The calculation for percent inhibition is as follows: [formula] […]

HIV-1 RT wild type (WT) = molecular target: T2, HIV-1 RT wild type (WT) (Human immunodeficiency virus type 1 group M subtype B, UniProt P04585); experiment: Reverse Transcriptase (RT) assay, wild type enzyme; assay type: biochemical
T2 construct: Heterodimeric RT was eluted using a descending gradient; made in house; host or cells: E. coli
From the text: as §1, §2, §3, §4, §5, §6

[2] = tested on: HIV replication in T-lymphocytes, virus coding for wild type enzyme; experiment: ELISA (p24) assay for activity in cell culture, wild type virus; assay type: cell-based; conditions: Human immunodeficiency virus 1, T-lymphocyte, read-out: EC50 WT RT
Method: (§7) ELISA Assay for Assessment of Activity in Cell Culture
(§8) Compounds of the invention were tested for their ability to inhibit HIV replication in cell culture. Viruses coding for Wild type and mutant enzymes were used. T-lymphocytes were infected with the virus, infected cells were incubated in the presence of varying amounts of compounds of the invention, and an ELISA assay for the viral protein p24 was used to quantify viral replication. Table 9 lists the results as EC50 (nM).

[3] = tested on: HIV replication in T-lymphocytes, virus coding for mutant enzyme K103N/Y181C; experiment: ELISA (p24) assay for activity in cell culture, mutant virus; assay type: cell-based; conditions: Human immunodeficiency virus 1, T-lymphocyte, read-out: EC50 K103N/Y181C
Method: as §7, §8

Row | Structure (SMILES) | IC50 [1] | IC50 (HIV-1 RT wild type (WT)) | EC50 [2] | EC50 [3]
1 | CCN1c2ncc(CCOc3cccc4c3CCN(CCCC(=O)NN)S4(=O)=O)cc2C(=O)N(C)c2cccnc21 [Compound 714] | < 100 nM | < 100 nM | < 100 nM | < 100 nM
2 | CCN1c2ncc(CCOc3cccc4c3CCS(=O)(=O)N4CCCC(=O)NNCC(F)(F)F)cc2C(=O)N(C)c2cccnc21 [Compound 640] | < 100 nM | < 100 nM | < 100 nM | < 100 nM
3 | CCN1c2ncc(CCOc3cccc4c3CCS(=O)(=O)N4CC(=O)NC3(C(=O)O)CC3)cc2C(=O)N(C)c2cccnc21 [Compound 638] | < 100 nM | < 100 nM | < 100 nM | < 100 nM
4 | CCN1c2ncc(CCOc3cccc4c3CNS4(=O)=O)cc2C(=O)N(C)c2cccnc21 [Compound 202] | < 100 nM | < 100 nM | < 100 nM | < 100 nM
5 | CCN1c2ncc(CCOc3cccc4c3CS(=O)(=O)N4CC(C)C(=O)O)cc2C(=O)N(C)c2cccnc21 (centres unmarked) [Compound 138] | < 100 nM | < 100 nM | < 100 nM | < 100 nM
6 | CCN1c2ncc(CCOc3cccc4c3CCS(=O)(=O)N4CC(=O)NC(C)(C)C(=O)O)cc2C(=O)N(C)c2cccnc21 [Compound 637] | < 100 nM | < 100 nM | < 100 nM | < 100 nM
7 | CCN1c2ncc(CCOc3cccc4c3CS(=O)(=O)N4Cc3ccc[n+]([O-])c3)cc2C(=O)Nc2c(C)ccnc21 [Compound 137] | < 100 nM | < 100 nM | < 100 nM | < 100 nM
8 | CCN1c2ncc(CCOc3cccc4c3CS(=O)(=O)N4Cc3ccc[n+]([O-])c3)cc2C(=O)N(C)c2cccnc21 [Compound 132] | < 100 nM | < 100 nM | < 100 nM | < 100 nM
9 | CCN1c2ncc(CCOc3cccc4c3CCS(=O)(=O)N4CCN3CCOCC3)cc2C(=O)N(C)c2cccnc21 [Compound 617] | < 100 nM | < 100 nM | < 100 nM | < 100 nM
10 | CCN1c2ncc(CCOc3cccc4c3CS(=O)(=O)N4CCO)cc2C(=O)N(C)c2cccnc21 [Compound 129] | < 100 nM | < 100 nM | < 100 nM | < 100 nM
11 | CCN1c2ncc(CCOc3cccc4c3CCS(=O)(=O)N4Cc3cccnc3)cc2C(=O)N(C)c2cccnc21 [Compound 629] | < 100 nM | < 100 nM | < 100 nM | < 100 nM
12 | CCN1c2ncc(CCOc3cccc4c3CS(=O)(=O)N4CC(=O)Nc3cc[n+]([O-])cc3)cc2C(=O)N(C)c2cccnc21 [Compound 141] | < 100 nM | < 100 nM | < 100 nM | < 100 nM
13 | CCN1c2ncc(CCOc3ccc4c(c3)C(C)(C)NS4(=O)=O)cc2C(=O)Nc2c(C)ccnc21 [Compound 311] | 100 to 1000 nM | < 100 nM | < 100 nM | < 100 nM
14 | CCN1c2ncc(CCOc3cccc4c3C=CS(=O)(=O)N4C)cc2C(=O)N(C)c2cccnc21 [Compound 803] | < 100 nM | < 100 nM | < 100 nM | < 100 nM
15 | CCN1c2ncc(CCOc3cccc4c3CCS(=O)(=O)N4CC(=O)NS(C)(=O)=O)cc2C(=O)N(C)c2cccnc21 [Compound 631] | < 100 nM | < 100 nM | 100 to 1000 nM | 100 to 1000 nM
16 | CCN1c2ncc(CCOc3cccc4c3CS(=O)(=O)N4)cc2C(=O)N(C)c2cccnc21 [Compound 101] | 100 to 1000 nM | < 100 nM | – | < 100 nM
17 | CCN1c2ncc(CCOc3cccc4c3C=CS(=O)(=O)N4C)cc2C(=O)Nc2c(C)ccnc21 [Compound 804] | < 100 nM | < 100 nM | < 100 nM | < 100 nM

Row | Structure (SMILES) | IC50 [1] | IC50 (HIV-1 RT wild type (WT)) | EC50 [2] | EC50 [3]
18 | CCN1c2ncc(CCOc3cccc4c3CS(=O)(=O)N4Cc3cccnc3)cc2C(=O)N(C)c2cccnc21 [Compound 131] | < 100 nM | < 100 nM | < 100 nM | < 100 nM
19 | CCN1c2ncc(CCOc3cccc4c3CS(=O)(=O)N4Cc3cc[n+]([O-])cc3)cc2C(=O)Nc2c(C)ccnc21 [Compound 136] | < 100 nM | < 100 nM | < 100 nM | < 100 nM
20 | CCN1c2ncc(CCOc3cccc4c3CCS(=O)(=O)N4Cc3ncc[nH]3)cc2C(=O)N(C)c2cccnc21 [Compound 642] | < 100 nM | < 100 nM | – | –
21 | CCNC(=O)CN1c2cccc(OCCc3cnc4c(c3)C(=O)N(C)c3cccnc3N4CC)c2CS1(=O)=O [Compound 140] | < 100 nM | < 100 nM | – | –
22 | CCN1c2ncc(CCOc3cccc4c3CCS(=O)(=O)N4CCCC(N)=O)cc2C(=O)N(C)c2cccnc21 [Compound 635] | < 100 nM | < 100 nM | – | –
23 | CCN1c2ncc(CCOc3cccc4c3CS(=O)(=O)N4CC(=O)NC3CC3)cc2C(=O)N(C)c2cccnc21 [Compound 139] | 100 to 1000 nM | < 100 nM | – | –
24 | CCN1c2ncc(CCOc3cccc4c3CCS(=O)(=O)N4CC(=O)N3CCCC3)cc2C(=O)N(C)c2cccnc21 [Compound 623] | < 100 nM | < 100 nM | – | –
25 | CCN1c2ncc(CCOc3cccc4c3CCS(=O)(=O)N4C(=O)N3CCCC3)cc2C(=O)N(C)c2cccnc21 [Compound 619] | < 100 nM | < 100 nM | – | –
26 | CCN1c2ncc(CCOc3cccc4c3CS(=O)(=O)N4)cc2C(=O)N(C)c2ccc(C)nc21 [Compound 113] | 100 to 1000 nM | < 100 nM | – | –
27 | CN1C(=O)c2cc(CCOc3cccc4c3CS(=O)(=O)N4C)cnc2N(C2CC2)c2ncccc21 [Compound 116] | 100 to 1000 nM | < 100 nM | – | –
28 | CCN1c2ncc(CCOc3cccc4c3CCS(=O)(=O)N4CC(N)=O)cc2C(=O)N(C)c2cccnc21 [Compound 609] | < 100 nM | < 100 nM | – | –
29 | CCN1c2ncc(CCOc3ccc4c(c3)CN(C)S4(=O)=O)cc2C(=O)N(C)c2cccnc21 [Compound 303] | 100 to 1000 nM | < 100 nM | – | –
30 | CCN1c2ncc(CCOc3ccc4c(c3)C(C)(C)NS4(=O)=O)cc2C(=O)N(C)c2cccnc21 [Compound 306] | < 100 nM | < 100 nM | – | –
31 | CCN1c2ncc(CCOc3cccc4c3CS(=O)(=O)N4C)cc2C(=O)Nc2c(C)cc(C)nc21 [Compound 117] | < 100 nM | < 100 nM | < 100 nM | –
32 | CCN1c2ncc(CCOc3cccc4c3CCS(=O)(=O)N4Cc3csc(C)n3)cc2C(=O)N(C)c2cccnc21 [Compound 622] | < 100 nM | < 100 nM | – | –
33 | CCN1c2ncc(CCOc3cccc4c3C(C)(C)NS4(=O)=O)cc2C(=O)N(C)c2cccnc21 [Compound 224] | 100 to 1000 nM | < 100 nM | – | –
